Experimental data taken from the supplement of paper PMC5908809.

Assays:
KHYG-1 (IL-2 2.5 ng/mL) [1] = test: percent inhibition of viability; higher = more inhibition; conditions: 72 h
[2] = tested on: normal primary NK cells, pool 2 (3 donors) (IL-2 2.5 ng/mL); test: as above; conditions: 72 h
DERL-7 (IL-2 2.5 ng/mL) [3] = test: as above; conditions: 72 h
NKL (IL-2 2.5 ng/mL) [4] = test: as above; conditions: 72 h
KAI3 (IL-2 2.5 ng/mL) [5] = test: as above; conditions: 72 h
NK-92 (IL-2 2.5 ng/mL) [6] = test: as above; conditions: 72 h
YT (IL-2 2.5 ng/mL) [7] = test: as above; conditions: 72 h
[8] = tested on: normal primary NK cells, pool 3 (3 donors) (IL-2 2.5 ng/mL); test: as above; conditions: 72 h
SNK-6 (IL-2 2.5 ng/mL) [9] = test: as above; conditions: 72 h
[10] = tested on: normal primary NK cells, pool 1 (3 donors), resting (IL-2 0 ng/mL); test: as above; conditions: 72 h
IMC-1 (IL-2 20 ng/mL) [11] = test: as above; conditions: 72 h
NK-YS (IL-2 2.5 ng/mL) [12] = test: as above; conditions: 72 h
[13] = tested on: normal primary NK cells, pool 1 (3 donors) (IL-2 2.5 ng/mL); test: as above; conditions: 72 h
[14] = tested on: normal NK cells expanded with K562-aAPC; test: drug sensitivity score (DSS) (DSS units); higher = more sensitive; extreme values may be limits of the assay; conditions: 72 h; IL-2 2.5 ng/mL
Procedure: (§1)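 Drug sensitivity and resistance testing on K562-aAPC-expanded normal NK cells: 5 concentrations (10-fold steps over a 10,000-fold range), 72 h at 37 °C, viability by CellTiter-Glo normalised to DMSO and benzethonium chloride controls; DSS from the fitted curve.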

KHYG-1 (IL-2 2.5 ng/mL) [15] = test: as above; conditions: 72 h
[16] = tested on: normal primary NK cells, pool 2 (3 donors) (IL-2 2.5 ng/mL); test: as above; conditions: 72 h
DERL-7 (IL-2 2.5 ng/mL) [17] = test: as above; conditions: 72 h
NKL (IL-2 2.5 ng/mL) [18] = test: as above; conditions: 72 h
KAI3 (IL-2 2.5 ng/mL) [19] = test: as above; conditions: 72 h
NK-92 (IL-2 2.5 ng/mL) [20] = test: as above; conditions: 72 h
YT (IL-2 2.5 ng/mL) [21] = test: as above; conditions: 72 h
[22] = tested on: normal primary NK cells, pool 3 (3 donors) (IL-2 2.5 ng/mL); test: as above; conditions: 72 h
SNK-6 (IL-2 2.5 ng/mL) [23] = test: as above; conditions: 72 h
[24] = tested on: normal primary NK cells, pool 1 (3 donors), resting (IL-2 0 ng/mL); test: as above; conditions: 72 h
IMC-1 (IL-2 20 ng/mL) [25] = test: as above; conditions: 72 h
NK-YS (IL-2 2.5 ng/mL) [26] = test: as above; conditions: 72 h
[27] = tested on: normal primary NK cells, pool 1 (3 donors) (IL-2 2.5 ng/mL); test: as above; conditions: 72 h
[28] = tested on: normal NK cells expanded with K562-aAPC; test: percent inhibition of viability; higher = more inhibition; conditions: 72 h, IL-2 2.5 ng/mL
Procedure: as §1

Nc1ncnc2c1c(COc1cccc(Cl)c1)nn2C1CCOCC1 (max concentration tested 10000 nM)
percent inhibition of viability [%]
Conditions	1 nM	10 nM	100 nM	1000 nM	10000 nM
DERL-7 (IL-2 2.5 ng/mL) [3]	-1.45	-6.37	0.64	4.1	23.4
IMC-1 (IL-2 20 ng/mL) [11]	-0.63	-0.09	1.3	2.67	5.66
KAI3 (IL-2 2.5 ng/mL) [5]	-4.22	-5.6	-4.5	-2.39	10.8
KHYG-1 (IL-2 2.5 ng/mL) [1]	3.82	3.26	2.76	9.04	2.95
NK-92 (IL-2 2.5 ng/mL) [6]	5.04	-5.45	2.8	11.6	20.2
NK-YS (IL-2 2.5 ng/mL) [12]	-2.03	-5.09	-3.81	-2.25	1.95
NKL (IL-2 2.5 ng/mL) [4]	2.65	1.05	6.33	7.05	28
SNK-6 (IL-2 2.5 ng/mL) [9]	11.9	13.8	-0.97	16.6	15
YT (IL-2 2.5 ng/mL) [7]	5.62	8.61	4.5	8.08	29.8
[2]	-11.2	-9.94	-1.24	-2.49	18.9
[8]	-12.8	-14.6	-0.61	5.01	13
[10]	-7.87	-6	-17.2	5.79	10.6
[13]	-5.02	-2.71	-7	-1.66	12.2
[28]	-1.33	-1.38	-0.63	3.72	15.8

Conditions	drug sensitivity score
DERL-7 (IL-2 2.5 ng/mL) [17]	1.44
IMC-1 (IL-2 20 ng/mL) [25]	0
KAI3 (IL-2 2.5 ng/mL) [19]	0
KHYG-1 (IL-2 2.5 ng/mL) [15]	0
NK-92 (IL-2 2.5 ng/mL) [20]	1.45
NK-YS (IL-2 2.5 ng/mL) [26]	0
NKL (IL-2 2.5 ng/mL) [18]	1.92
SNK-6 (IL-2 2.5 ng/mL) [23]	0
YT (IL-2 2.5 ng/mL) [21]	2.23
[14]	0.66
[16]	0.39
[22]	0.39
[24]	0.06
[27]	0.03

Cc1cn(-c2cc(NC(=O)c3ccc(C)c(Nc4nccc(-c5cccnc5)n4)c3)cc(C(F)(F)F)c2)cn1 [Nilotinib] (max concentration tested 10000 nM)
percent inhibition of viability [%]
Conditions	1 nM	10 nM	100 nM	1000 nM	10000 nM
DERL-7 (IL-2 2.5 ng/mL) [3]	-4.23	4.31	-3.59	-5.83	-5.46
IMC-1 (IL-2 20 ng/mL) [11]	-4.03	-1.9	2.58	0.7	-38.1
KAI3 (IL-2 2.5 ng/mL) [5]	-3.54	-7.12	4.99	7.48	20
KHYG-1 (IL-2 2.5 ng/mL) [1]	-0.89	0.67	11.9	5.38	17.9
NK-92 (IL-2 2.5 ng/mL) [6]	12.4	5.92	27.1	23.8	33.9
NK-YS (IL-2 2.5 ng/mL) [12]	-1.07	-0.64	9.04	11.3	15.7
NKL (IL-2 2.5 ng/mL) [4]	-17.5	-6.91	-4.77	29.9	50.9
SNK-6 (IL-2 2.5 ng/mL) [9]	11.9	22.4	9.61	18.6	37.7
YT (IL-2 2.5 ng/mL) [7]	1.35	1.76	8.97	16.1	18.2
[2]	-15.7	-12.8	-10.3	-4.04	1.26
[8]	-13.2	-5.87	-1.78	-9.25	-1.3
[10]	7.74	-12.7	-5.01	-11.6	-17.4
[13]	3.44	-14	-6.22	-13.6	-12.9
[28]	-1.85	-4.37	-3.71	7.45	26.5

Conditions	drug sensitivity score
DERL-7 (IL-2 2.5 ng/mL) [17]	0
IMC-1 (IL-2 20 ng/mL) [25]	0
KAI3 (IL-2 2.5 ng/mL) [19]	0.95
KHYG-1 (IL-2 2.5 ng/mL) [15]	0.72
NK-92 (IL-2 2.5 ng/mL) [20]	7.73
NK-YS (IL-2 2.5 ng/mL) [26]	1.36
NKL (IL-2 2.5 ng/mL) [18]	6.35
SNK-6 (IL-2 2.5 ng/mL) [23]	6.76
YT (IL-2 2.5 ng/mL) [21]	2.28
[14]	2.11
[16]	0
[22]	0
[24]	0
[27]	0
